“And” between values parts separate entries of the source, which are not always exact repeats. Identical values can stand only once. Inconclusive results and toxic doses are left out.
Test system: L1210 leukemia ip in BDF1 mice, survival T/C
Test: NCI In Vivo Anticancer Drug Screen. Data for tumor model L1210 Leukemia (intraperitoneal) in B6D2F1 (BDF1) mice
Details: endpoint: mean survival time, higher = longer survival
Outline: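 In this screen, tumor-bearing mice given compound are compared to those given vehicle, and their survival values are reported as a treated-to-control quotient.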

[1] = dose: 25.0 mg/kg/injection, schedule: Q04DX003 (ip), vehicle: Klucel (hydroxypropylcellulose) (HPC)
[2] = dose: 50.0 mg/kg/injection, schedule: Q04DX003 (ip), vehicle: Klucel (hydroxypropylcellulose) (HPC)
[3] = dose: 100.0 mg/kg/injection, schedule: Q04DX003 (ip), vehicle: Klucel (hydroxypropylcellulose) (HPC)
[4] = dose: 200.0 mg/kg/injection, schedule: Q04DX003 (ip), vehicle: Klucel (hydroxypropylcellulose) (HPC)
[5] = dose: 400.0 mg/kg/injection, schedule: Q04DX003 (ip), vehicle: Klucel (hydroxypropylcellulose) (HPC)
[6] = dose: 50.0 mg/kg/injection, schedule: Q01DX001 (ip), vehicle: other
[7] = dose: 100.0 mg/kg/injection, schedule: Q01DX001 (ip), vehicle: saline
[8] = dose: 200.0 mg/kg/injection, schedule: Q01DX001 (ip), vehicle: saline
[9] = dose: 400.0 mg/kg/injection, schedule: Q01DX001 (ip), vehicle: saline

Clc1ccc(-c2cc(=[N+]3CCCCC3)ss2)cc1
T/C (dose: 100.0 mg/kg/injection, schedule: Q01DX009 (ip), vehicle: saline with Tween-80): 100 % of control
T/C (dose: 100.0 mg/kg/injection, schedule: Q04DX003 (ip), vehicle: saline with Tween-80): 104 % of control
T/C (dose: 200.0 mg/kg/injection, schedule: Q04DX003 (ip), vehicle: saline with Tween-80): 94 % of control

CC(C)(Cc1ccc(F)cc1)NCc1ccccc1
T/C (dose: 25.0 mg/kg/injection, schedule: Q01DX009 (ip), vehicle: Klucel (hydroxypropylcellulose) (HPC)): 92 % of control
T/C [1]: 101 % of control
T/C (dose: 50.0 mg/kg/injection, schedule: Q01DX009 (ip), vehicle: Klucel (hydroxypropylcellulose) (HPC)): 95 % of control
T/C [2]: 103 % of control
T/C [3]: 88 % of control and 92 % of control

CC(=O)OCCN1C(=O)c2ccccc2C1=O
T/C [3]: 104 % of control
T/C [4]: 117 % of control
T/C [5]: 101 % of control

O=C(Nc1cccc2ccccc12)c1ccc(Cl)c(Cl)c1
T/C (dose: 100.0 mg/kg/injection, schedule: Q01DX009 (ip), vehicle: Klucel (hydroxypropylcellulose) (HPC)): 104 % of control
T/C (dose: 200.0 mg/kg/injection, schedule: Q01DX009 (ip), vehicle: Klucel (hydroxypropylcellulose) (HPC)): 100 % of control
T/C (dose: 400.0 mg/kg/injection, schedule: Q01DX009 (ip), vehicle: Klucel (hydroxypropylcellulose) (HPC)): 98 % of control

S=c1nc[nH]c2c1ncn2CN1CCCCC1
T/C (dose: 25.0 mg/kg/injection, schedule: Q01DX009 (ip), vehicle: other): 151 % of control
T/C (dose: 25.0 mg/kg/injection, schedule: Q01DX Z (ip), vehicle: carboxymethylcellulose (CMC)): 109 % of control
T/C (dose: 50.0 mg/kg/injection, schedule: Q01DX009 (ip), vehicle: other): 192 % of control
T/C (dose: 50.0 mg/kg/injection, schedule: Q01DX Z (ip), vehicle: carboxymethylcellulose (CMC)): 102 % of control
T/C (dose: 100.0 mg/kg/injection, schedule: Q01DX009 (ip), vehicle: other): 116 % of control
T/C (dose: 100.0 mg/kg/injection, schedule: Q01DX Z (ip), vehicle: carboxymethylcellulose (CMC)): 120 % of control
T/C (dose: 200.0 mg/kg/injection, schedule: Q01DX009 (ip), vehicle: other): 102 % of control

COc1c(CO)c2c(c(OC)c1OC)-c1ccc(OC)c(=O)cc1[C@@H](NC(C)=O)CC2
T/C (dose: 33.0 mg/kg/injection, schedule: Q01DX015 (ip), vehicle: saline): 122 % of control

C[NH-].C[NH-].[Br][Pt+2][Br]
T/C (dose: 0.62 mg/kg/injection, schedule: Q01DX009 (ip), vehicle: water): 118 % of control and 123 % of control
T/C (dose: 1.5 mg/kg/injection, schedule: Q01DX001 (ip), vehicle: other): 108 % of control
T/C (dose: 1.5 mg/kg/injection, schedule: Q01DX009 (ip), vehicle: other): 115 % of control
T/C (dose: 2.0 mg/kg/injection, schedule: Q01DX009 (ip), vehicle: other): 161 % of control
T/C (dose: 3.0 mg/kg/injection, schedule: Q01DX001 (ip), vehicle: other): 117 % of control
T/C (dose: 3.0 mg/kg/injection, schedule: Q01DX005 (ip), vehicle: saline with Tween-80): 105 % of control
T/C (dose: 3.0 mg/kg/injection, schedule: Q01DX009 (ip), vehicle: other): 153 % of control
T/C (dose: 4.5 mg/kg/injection, schedule: Q01DX009 (ip), vehicle: other): 95 % of control
T/C (dose: 5.0 mg/kg/injection, schedule: Q01DX009 (ip), vehicle: water): 98 % of control
T/C (dose: 6.0 mg/kg/injection, schedule: Q01DX001 (ip), vehicle: other): 117 % of control
T/C (dose: 6.0 mg/kg/injection, schedule: Q01DX009 (ip), vehicle: other): 98 % of control
T/C (dose: 10.0 mg/kg/injection, schedule: Q01DX009 (ip), vehicle: water): 115 % of control
T/C (dose: 25.0 mg/kg/injection, schedule: Q01DX001 (ip), vehicle: other): 124 % of control
T/C [6]: 95 % of control

CN(C=O)C(=S)[S][Sb]([S]C(=S)N(C)C=O)[S]c1nc2ccc(N=Nc3ccc(NS(=O)(=O)c4ccc(NC(=O)C(Cl)Cl)cc4)cc3)cc2s1
T/C (dose: 100.0 mg/kg/injection, schedule: Q01DX001 (ip), vehicle: steriod suspending solution): 101 % of control

C=CCCCCCCCCCNc1cc2c3c(c1)CCCN3CCC2
T/C (dose: 0.19 mg/kg/injection, schedule: Q01DX003 (ip), vehicle: saline): 90 % of control
T/C (dose: 0.19 mg/kg/injection, schedule: Q01DX009 (ip), vehicle: saline): 108 % of control
T/C (dose: 0.39 mg/kg/injection, schedule: Q01DX003 (ip), vehicle: saline): 98 % of control
T/C (dose: 0.39 mg/kg/injection, schedule: Q01DX009 (ip), vehicle: saline): 98 % of control
T/C (dose: 0.78 mg/kg/injection, schedule: Q01DX003 (ip), vehicle: saline): 101 % of control

CC12CCC3(CC1CC/C(=C\c1ccco1)C2=O)OCCO3 (stereo unspecified)
T/C [7]: 101 % of control
T/C (dose: 100.0 mg/kg/injection, schedule: Q04DX003 (ip), vehicle: saline): 108 % of control
T/C [8]: 92 % of control
T/C (dose: 200.0 mg/kg/injection, schedule: Q04DX003 (ip), vehicle: saline): 95 % of control
T/C [9]: 97 % of control
T/C (dose: 400.0 mg/kg/injection, schedule: Q04DX003 (ip), vehicle: saline): 98 % of control

CNc1nc(Cl)cc2nc(Cl)cn12
T/C [7]: 94 % of control
T/C [8]: 96 % of control
T/C [9]: 96 % of control

C1CCC2C(C1)CCCC2C(C1CCCC2CCCCC21)C1CCCC2CCCCC21 (stereo unspecified)
T/C (dose: 100.0 mg/kg/injection, schedule: Q01DX001 (ip), vehicle: saline with Tween-80): 90 % of control
T/C (dose: 200.0 mg/kg/injection, schedule: Q01DX001 (ip), vehicle: saline with Tween-80): 90 % of control
T/C (dose: 400.0 mg/kg/injection, schedule: Q01DX001 (ip), vehicle: saline with Tween-80): 90 % of control

CNc1cc(Cl)c(Cl)cc1[N+](=O)[O-]
T/C (dose: 100.0 mg/kg/injection, schedule: Q01DX009 (ip), vehicle: saline sonified): 98 % of control
T/C [3]: 95 % of control
T/C (dose: 200.0 mg/kg/injection, schedule: Q01DX009 (ip), vehicle: saline sonified): 98 % of control
T/C [4]: 98 % of control
T/C (dose: 400.0 mg/kg/injection, schedule: Q01DX009 (ip), vehicle: saline sonified): 98 % of control
T/C [5]: 104 % of control

Cc1ncc(CCO)c(CO)c1O
T/C [7]: 104 % of control
T/C [8]: 101 % of control
T/C [9]: 106 % of control

Cc1ccc(-c2ccccc2)n1-c1ccccc1O
T/C [6]: 104 % of control
T/C (dose: 100.0 mg/kg/injection, schedule: Q01DX001 (ip), vehicle: other): 102 % of control
T/C (dose: 200.0 mg/kg/injection, schedule: Q01DX001 (ip), vehicle: other): 96 % of control
T/C (dose: 400.0 mg/kg/injection, schedule: Q01DX001 (ip), vehicle: other): 98 % of control

CCC(=O)O[C@H]1CC[C@H]2[C@@H]3CCC4=CC(=O)CC[C@]4(C)[C@H]3CC[C@]12C
T/C (dose: 125.0 mg/kg/injection, schedule: Q01DX Z (sc), vehicle: steriod suspending solution): 101 % of control and 106 % of control
T/C (dose: 250.0 mg/kg/injection, schedule: Q01DX Z (sc), vehicle: steriod suspending solution): 97 % of control and 112 % of control
T/C (dose: 500.0 mg/kg/injection, schedule: Q01DX Z (sc), vehicle: steriod suspending solution): 101 % of control and 103 % of control
T/C (dose: 500.0 mg/kg/injection, schedule: Q01DX Z (sc), vehicle: water): 95 % of control
T/C (dose: 1000.0 mg/kg/injection, schedule: Q01DX Z (sc), vehicle: steriod suspending solution): 100 % of control
T/C (dose: 1000.0 mg/kg/injection, schedule: Q01DX Z (sc), vehicle: water): 97 % of control

N#CCC[P+](c1ccccc1)(c1ccccc1)c1ccccc1
T/C (dose: 5.0 mg/kg/injection, schedule: Q01DX001 (ip), vehicle: saline): 102 % of control
T/C (dose: 10.0 mg/kg/injection, schedule: Q01DX001 (ip), vehicle: saline): 102 % of control
T/C (dose: 20.0 mg/kg/injection, schedule: Q01DX001 (ip), vehicle: saline): 102 % of control
T/C (dose: 40.0 mg/kg/injection, schedule: Q01DX001 (ip), vehicle: saline): 102 % of control
T/C (dose: 80.0 mg/kg/injection, schedule: Q01DX001 (ip), vehicle: saline): 100 % of control
T/C [7]: 109 % of control
T/C [8]: 108 % of control

N#CC(SC(=N)N)c1ccccc1 (stereo unspecified)
T/C [7]: 103 % of control
T/C [8]: 96 % of control

OC(CNCCc1ccccc1)COc1cccc2ccccc12 (stereo unspecified)
T/C [1]: 97 % of control
T/C [2]: 95 % of control
T/C [3]: 95 % of control

O=[N+]([O-])c1ccc(/C=C/c2ccccn2)s1
T/C [3]: 96 % of control
T/C (dose: 100.0 mg/kg/injection, schedule: Q04DX003 (ip), vehicle: water): 101 % of control
T/C [4]: 112 % of control
T/C (dose: 200.0 mg/kg/injection, schedule: Q04DX003 (ip), vehicle: water): 98 % of control
T/C [5]: 96 % of control
T/C (dose: 400.0 mg/kg/injection, schedule: Q04DX003 (ip), vehicle: water): 97 % of control
